# Results taken from patent US4423039A, “Disaggregated solutions of polypeptides, their preparation and use” (The Hospital for Sick Children, priority 1980, dated 1983).
# Key:
# zinc insulin crystals = target: T1, zinc insulin crystals (Sus scrofa, UniProt P01315); test: dissolution times of zinc insulin crystals exposed to test solutions (microscope slide assay); assay type: physicochemical, pork
# T1 construct: measures the dissolution times of zinc insulin crystals
# Description: (§1) The test involved transferring pork insulin crystals to a clean microscope slide using the tip of a 25 G needle so that 10 to 30 crystals were distributed in the field of view. A 25 μl aliquot of the test solution was pipetted to form a small droplet which covered the crystals. […] The pH's of the test solutions were measured and the former were adjusted where appropiate to pH 7.5 using 1 N NaOH or 1 N HCl.
# glucagon = glucagon (Homo sapiens, UniProt P01275); test: dissolution of glucagon crystals in test solutions (tested as for insulin); assay type: physicochemical; settings: 150 mmol solution (pH 7.5) in distilled water
# Description: as §1
# Neutral pork insulin = Neutral pork insulin (Sus scrofa, UniProt P01315); settings: 2.5, 25, 250 and 2,500 mmolar; 5 U/ml neutral pork insulin, 0.1 g copper per 10 ml, shaken at 37° C., pH 7.5, triplicate
# Description: Biostatic water was used as the diluent. Neutral pork insulin was added to each to give a final concentration of 5 U/ml. To each sterile 10 ml vial 0.1 g of copper was added. Control vials were prepared exactly as above but no bicarbonate was added. The vials were aggitated on an Eberback shaker at 37° C. The experiment was run in triplicate at pH 7.5.
# [1] = test solution 150 mmol/l, pH 7.5, 25 μl droplet on pork zinc insulin crystals
# T1 sequence (P01315 25-54 limits assumed): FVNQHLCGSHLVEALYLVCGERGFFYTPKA
# T1 sequence (P01315 88-108 limits assumed): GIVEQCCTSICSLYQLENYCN
# Chain of Neutral pork insulin (P01315 25-54 limits assumed): as the sequence (P01315 25-54 limits assumed) above
# Chain of glucagon (P01275 53-81 limits assumed, species assumed): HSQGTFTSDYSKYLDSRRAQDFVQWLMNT
smiles,measurement,setting,value
O=CO [Formic Acid],Dissolution Time ± SEM,zinc insulin crystals; [1],> 1200 s
CC(O)C(=O)O (stereo not shown) [Lactic Acid],Dissolution Time ± SEM,zinc insulin crystals; [1],> 1200 s
O=C([O-])O.[Na+] [Sodium Bicarbonate],Dissolution Time ± SEM,"zinc insulin crystals; test solution 25 mmol/l, pH 7.5",360 ± 20 s
same,Dissolution Time ± SEM,zinc insulin crystals; [1],50 ± 5 s
same,dissolution time of glucagon,glucagon,45 ± 12 s
same,time vials remained clear (no aggregation) to date,Neutral pork insulin,≥ 35 days
NC(N)=O [Urea],fraction of insulin crystals dissolved at 300 sec,"zinc insulin crystals; 25 mmol/l, at 300 sec",20%
